# Source: PMC13010326, “Fragment-Based Development of NSP14 Exonuclease Inhibitors Confounded by Batch-to-Batch Variability” (ACS Chemical Biology, 2026)
# Where two headings read alike, the source gives them in different places.
# How the values were obtained:
# NSP14 ExoN [1] = target: T1, NSP14 ExoN (Severe acute respiratory syndrome coronavirus 2, UniProt P0DTD1); test: biochemical
# NSP14 = NSP14 (Severe acute respiratory syndrome coronavirus 2, UniProt P0DTD1); test: NSP14 DSF thermal shift assay; format: binding, SARS-CoV-2; details: 1 mM compound
# Description: In technical triplicate, NSP14 (0.15 mg mL^–1) was prepared in 20 mM HEPES pH 7.5, 200 mM NaCl, 1 mM TCEP, and 2 mM MgCl2 and mixed with 1 mM compound or 2% DMSO. Samples were rested for 10 min and then mixed with SYPRO Orange (3× concentration, Invitrogen No. S6650). Raw melting curves (25–99 °C, 0.05 °C C/s, 20 μL volume) were collected on a QuantStudio 3 (Applied Biosystems) and each replicate well was individually normalized from 0 to 100 prior to averaging.
# substrate dsRNA = test: Thiazole orange dsRNA intercalation (competition) counter-screen; format: binding; details: final 0.5% DMSO
# Description: RNase T1 inhibition assay and thiazole orange RNA intercalation counter-screening assays were conducted essentially as previously reported. The TR-FRET ExoN activity assay dsRNA substrate and Assay Buffer were used for the intercalation assay and mixed with compounds in a final 0.5% DMSO.
# NSP14 ExoN [2] = target: T1, NSP14 ExoN; set-up: method as in not given; details: small biochemical screens; promiscuous compounds; ref not given; cited from earlier work
# [3] = original (first) compound batches, read-out: pIC50, inhibition of NSP14 ExoN in biochemical activity assay (converted)
# [4] = resynthesized, more stringently purified second batch
# [5] = biochemically active (first) batch
compound,measurement,setting,value
C=Cc1csc(CNC(=O)c2cc[nH]n2)n1 [Compound 5],IC50,NSP14 ExoN [1]; [3],251 µM
CC(C)c1csc(CNC(=O)c2cc[nH]n2)n1 [Compound 3],IC50,NSP14 ExoN [1]; [3],2.51 µM
same,Activity of second batches against NSP14 ExoN,NSP14 ExoN [1]; [4],inactive
same,NSP14 destabilization by differential scanning fluorimetry (DSF),NSP14; [5],evidence of NSP14 destabilization
same,NSP14 destabilization by differential scanning fluorimetry (DSF),NSP14; biochemically inactive second batch,did not
CC(=O)NCc1cc(C(=O)NCc2nc(C3CC3)cs2)n[nH]1 [Compound 13],Activity of second batches against NSP14 ExoN,NSP14 ExoN [1],inactive
same,Binding to substrate dsRNA by thiazole orange competition assay,substrate dsRNA,neither bound to substrate dsRNA
same,NSP14 destabilization by differential scanning fluorimetry (DSF),NSP14; [5],evidence of NSP14 destabilization
O=C1C=C2C(=CCOC2O)O1 (centres unmarked) [patulin],Inhibition of NSP14 ExoN (in words),NSP14 ExoN [2],can inhibit NSP14 ExoN
CC(C)=CCOc1ccc(/C=C/C(=O)c2ccc(OCC=C(C)C)cc2OCC(=O)O)cc1 [sofalcone],Inhibition of NSP14 ExoN (in words),NSP14 ExoN [2],can inhibit NSP14 ExoN
CC(=O)NCc1cc(C(=O)NCc2nc(C(C)C)cs2)n[nH]1 [Compound 15],IC50,NSP14 ExoN [1]; [3],> 501 µM
O=c1c2ccccc2[se]n1-c1ccccc1 [ebselen],Inhibition of NSP14 ExoN (in words),NSP14 ExoN [2],can inhibit NSP14 ExoN
"O=C(NCc1nc(C2CC2)cs1)c1cc(CNCC2CC2)[nH]n1 [Compound 12, 5-(((Cyclopropylmethyl)amino)methyl)-N-((4-cyclopropylthiazol-2-yl)methyl)-1H-pyrazole-3-carboxamide]",Activity of second batches against NSP14 ExoN,NSP14 ExoN [1],inactive
same,Binding to substrate dsRNA by thiazole orange competition assay,substrate dsRNA,neither bound to substrate dsRNA
same,NSP14 destabilization by differential scanning fluorimetry (DSF),NSP14; [5],evidence of NSP14 destabilization
"Cc1cc(N2CCNCC2)nc(C)n1 [Compound 1, reference compound]",IC50,NSP14 ExoN [1]; [3],398 µM
O=C(NCc1nc(C2CC2)cs1)c1cc[nH]n1 [Compound 6],IC50,NSP14 ExoN [1]; [3],50.1 µM
same,Activity of second batches against NSP14 ExoN,NSP14 ExoN [1]; [4],inactive
"Cc1csc(CNC(=O)c2cc[nH]n2)n1 [Compound 2, reference compound]",IC50,NSP14 ExoN [1]; [3],> 501 µM
CC(C)c1csc(CNC(=O)c2cc(CNCC3CC3)[nH]n2)n1 [Compound 16],IC50,NSP14 ExoN [1]; [3],> 501 µM
C#Cc1nc(CNC(=O)c2cc[nH]n2)cs1 [Compound 4],IC50,"NSP14 ExoN [1]; original (first) batch, n = 5, read-out: IC50, inhibition of NSP14 ExoN in biochemical activity assay (as printed in text for 4) (converted)",158 µM
O=C(NCc1nc(C2CC2)cs1)c1n[nH]c2ncccc12 [Compound 14],IC50,NSP14 ExoN [1]; [3],158 µM
O=C(O)C1=CC(=C(c2ccc(O)c(C(=O)O)c2)c2ccc(O)c(C(=O)O)c2)C=CC1=O [aurintricarboxylic acid],Inhibition of NSP14 ExoN (in words),NSP14 ExoN [2],can inhibit NSP14 ExoN
